The values that follow come from patent US6949521B2, “Therapeutic azide compounds” (priority 1995, dated 2005).

Read-outs that look alike come from different tables or passages of the source.

Series [1] can be described thus: In vitro metabolism study of 6-AAP and ara-A in mouse liver homogenate, serum and brain homogenate.
Protocol: All the solvents were of HPLC grade. Chromatography was performed on an Altech Hypersil ODS C18 (5 μm particle size, 4.5×150 mm, Altech Associates, Deerfield, Ill.).
In vitro metabolism study. Female NIH Swiss mice (Harland Sprague-Dawley, Indianapolis, Ind.) were sacrificed and serum, liver and brain tissues were collected before each experiment. Serum was collected from several animals. The brain and liver were washed in normal saline at 4° C., wiped and then weighed. […] Samples and blanks of volume 400 μL were collected at 0, 5, 15, and 30 minutes and at 1, 2, 3, 4 and 5 hours.
To measure the analyte concentrations in serum, liver or brain homogenate, 400 μL of sample was mixed with 50 μL of internal standard (AzdU, 5 μg/mL) and 0.7 mL of acetonitrile. After centrifugation, the supernatant was decanted to another tube and treated with anhydrous Na2SO4, then vortexed for one minute and centrifuged again. The organic layer was separated and evaporated under nitrogen stream at room temperature. The residue was reconstituted in mobile phase A and filtered through MPS-I micropartition system (3KD membranes (Amicon Inc., Beverly, Mass.) by centrifugation for 50 minutes at 2000 rpm to further clean-up the samples. 100 μL of filtrate was injected for analysis.
A further series in a line: in vitro. As to conditions: female, NIH Swiss, mouse, liver homogenate.
Series [2] in a line: Pharmacokinetics in mouse serum after iv and oral administration of cordycepin or its azide derivative. In kind it is in vivo, mice. As for the experimental part: 100 mg/kg of cordycepin or the azide derivative of cordycepin were administered intravenously (iv) (dissolved in methylsulfoxide (20 mg/ml)), or orally (dissolved in 30% glycerin (8.3 mg/ml)). Three animals for each time point were sacrificed at 0.08, 0.25, 0.5, 0.75, 1.0, 1.5, 2.0, 3.0 and 4.0 h after drug administration. Blood (serum) was collected and immediately analyzed.
An AzdU was used as an internal standard (20 μg/ml) to measure the azide derivative concentrations in serum. Tubes were vortexed and centrifuged at 9,000 rpm for 5 min.
To neutralize, perchloric acid supernatant was transferred into a clean tube with 160 μl of concentrated sodium tetraborate solution (pH 6.5). Tubes were vortexed again and centrifuged at 12,000 rpm for 15 min. Samples were held at 0° C. during analysis.
Chromatographic separations were carried out on a Shimadzy gradient HPLC system (Shimadzy Corporation, Kyoto, Japan), which was equipped with a Model SPD-10A UV detector, a Model L-10AS pump, a Model SIL-10A autosampler, a controller Model SCL-10A and a Model CR-501 reporting integrator. Chromatography was performed on an Alltech Hypersil ODS (5 μm particle size, 4.6×250 mm, Ailtech Associates, Deerfield, Ill.) to determine cordycepin and its metabolite. The azide derivative of cordycepin was analyzed on an Alltech Hypersil BDS column (5 μm particle size, 4.6×250 mm, Alltech Associates, Deerfield, Ill.).
The mobile phase for cordycepin and metabolite analysis in serum consisted of 3% acetonitrile in 20 mM sodium borate and 10 mM EDTA (pH 6.5) at a flow of 1.4 ml/min and the mobile phase for azide derivative analysis in serum consisted of 3% acetonitrile 20 mM in potassium phosphate (pH 4.0) at a flow of 1.5 ml/min. The UV detector was set at 258 nm for analysis of cordycepin and metabolite and at 290 nm for the azide derivative.
The limit of quantitation was 0.05 μg/ml for cordycepin and metabolite and 0.5 μg/ml for the azide derivative.
Plasma concentration versus time data for nucleosides were analyzed by noncompartment methods. […] Prog. Biomed. (1983) 16:203-216.
Absolute bioavailability (F) of the azide derivative was calculated from AUCor/AUCiv, where AUC values were determined from serum nucleoside concentration versus time data.
Relative exposures for cordycepin and its metabolite in serum after or versus iv administration of the derivative were calculated from AUCor/AUCiv.

Series [3] can be described thus: In vitro stability in PBS, mouse serum, brain and liver homogenate (FAAddP, FMAddA). The series is classed as in vitro ADME. As for the experimental part:
In vitro stability in serum, brain and liver homogenate. Liver and brain homogenate were prepared in a 1: 1 (g:mL) ratio with isotonic 0.05 M phosphate buffer, pH 7.4. FAAddP (70 μM) or FMAddA (50 μM) were added to the mouse serum, the brain homogenate or the liver homogenate and incubated in a shaker water bath at 37° C. Aliquots of 100 μL were removed at time zero and at selected times for up to 6 hours. Concentrations of the compounds were determined by HPLC.
(§1) Analytical Methodology. […] The brain or liver tissue were homogenized in a 1:1 (g:mL) ratio with ice cold isotonic 0.05 M phosphate buffer, pH 7.4. […] Acetonitrile (600 μL) containing 0.1% acetic acid was added while vortexing to precipitate proteins. The tubes were centrifuged at 3,000 rpm for five minutes and the supernatant was transferred to a clean tube. Supernatant was evaporated to dryness under a stream of nitrogen gas at room temperature. The residual film was reconstituted in 110 μL of mobile phase and 50 μL was injected onto the HPLC.
(§2) Chromatographic separations were performed using a Hypersil ODS column 150×4.5 mm, 5 μm particle size (Alltech Associates, Deerfield, Ill.) preceded by a guard column packed with 30-40 μm pellicular Perisorb RP-18. Mobile phase flow rate was 2 mL/min. For the analysis of FAAddP and 2′-F-ara-ddA, the mobile phase consisted of 7% (v/v) acetonitrile in 80 mM sodium acetate, pH 5.0. […] Eluants were monitored at a UV wavelength of 260 nm.
(§3) Nucleoside standards ranging from 0.04 μg/mL to 100 μg/mL, prepared in blank PBS, serum, brain homogenate and liver homogenate were treated the same as unknown samples. Samples with nucleoside concentrations greater than 100 μg/mL were diluted with the appropriate blank matrix.
Data analysis in vitro studies.

A short description of a further series: in vivo. As to conditions: mouse, in vivo.
Text: Animal studies. […] Animal studies were approved by the University of Georgia Animal Care and Use Committee and conducted in accordance with guidelines established by the Animal Welfare Act and the National Institutes of Health Guide for the Care and Use of Laboratory Animals. […] Animals were acclimatized to this environment for one week prior to the experiments.
At selected time intervals, mice (three animals per each time point) were anesthetized with diethyl ether and sacrificed by exsanguination via left ventricular heart puncture. Serum was harvested from blood collected. The brain was excised, rinsed with normal saline, blotted dry and weighed.
as §1, §2, §3
Data analysis in vivo studies. Nucleoside concentration as a function of time data were analyzed by a non-compartmental technique. […] Relative brain exposure (re) was calculated from AUCbrain/AUCserum.

Series [4] concerns the target T1, adenosine deaminase (type VII from calf intestinal mucosa) (Bos taurus, UniProt P56658).
T1 construct: type VII from calf intestinal mucosa; purchased Sigma Chemical Co., St. Louis, Mo. type VII; host or cells: calf intestinal mucosa
T1 sequence (P56658 1-363): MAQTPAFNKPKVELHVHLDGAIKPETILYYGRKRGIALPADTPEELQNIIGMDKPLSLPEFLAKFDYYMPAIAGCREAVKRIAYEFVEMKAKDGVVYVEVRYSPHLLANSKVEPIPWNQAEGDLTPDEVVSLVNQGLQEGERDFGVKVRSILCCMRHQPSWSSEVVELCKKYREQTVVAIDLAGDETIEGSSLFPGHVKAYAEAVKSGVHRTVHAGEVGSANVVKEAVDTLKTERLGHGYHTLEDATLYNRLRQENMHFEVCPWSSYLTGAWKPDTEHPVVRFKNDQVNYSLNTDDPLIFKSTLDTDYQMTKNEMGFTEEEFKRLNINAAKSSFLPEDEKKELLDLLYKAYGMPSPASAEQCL
Put plainly: Deamination by adenosine deaminase (2′-fluoronucleosides). The series is classed as biochemical. On the procedure:
Deamination of 2′-F-ara-ddA and FMAddA by adenosine deaminase. Samples (1.5 mL) of 2′-F-ara-ddA (80 μM) or FMAddA (50 μM) were prepared in 0.05 M isotonic phosphate buffer, pH 7.4, and placed into a shaking water bath at 37° C. The reaction was initiated by the addition of 15 μL of adenosine deaminase (type VII from calf intestinal mucosa, Sigma Chemical Co., St. Louis, Mo.). The final activity in the incubation media was 0.05 U/mL for 2′-F-ara-ddA and 1.0 U/mL for FMAddA. At specified time intervals, aliquots of 100 μL were withdrawn for the determination of 2′-F-ara-ddA and 2′-F-ara-ddI or FMAddA and 2′-F-ara-ddI concentrations.
Mobile phase flow rate was 2 mL/min.

Setting [5] is: 6-AAP incubated in mouse liver homogenate.
The mark [6] stands for this setting: mouse serum, after iv azide derivative 100 mg/kg.
The mark [7] stands for this setting: mouse serum, after oral azide derivative 100 mg/kg.
Setting [8] is: female, NIH Swiss, mouse, in vivo, po, 100 mg/kg.
[9] abbreviates: female, NIH Swiss, mouse, in vivo, iv, 100 mg/kg.

In series [1] (setting [5]), `O=c1[nH]cnc2c1ncn2[C@@H]1O[C@H](CO)[C@@H](O)[C@@H]1O` [Ara-H, 9-(β-D-arabinofuranosyl)hypoxanthine] returned a Kel of 0.26 h⁻¹ and a T1/2 of 147 min. Besides, in series [1] (Ara-A incubated in mouse liver homogenate), the Kel was found to be 0.31 h⁻¹. The same compound had a half-life at 100 μg/mL in the series “in vitro” of 134 min.
Regarding `[N-]=[N+]=Nc1ncnc2c1ncn2[C@@H]1O[C@H](CO)C[C@H]1O` [Azide Deriv., N^6-azido-β-D-3′-deoxyribofuranosyl purine], in series [2] (mice, azide derivative), the “absolute bioavailability after oral administration” value is given as 94%. In series [2] (setting [6]), the “AUC0→∞ iv” value came out at 47200 ± 4010 ng·h/mL, the “Cmax (maximal measured concentration) iv” value is 143000 ± 33400 ng/mL and the T½ iv stood at 21.6 min. Also, in series [2] (mouse serum, after iv azide derivative 100 mg/kg, listed as azide derivative), the T½ iv came to 21 min. Besides, in series [2] (setting [7]), the “AUC0→∞ oral” value was 44500 ± 2780 ng·h/mL, the “Cmax (maximal measured concentration) oral” value is 48200 ± 12300 ng/mL and the T½ oral was 31.8 min.
For the compound `Nc1ncnc2c1ncn2[C@@H]1O[C@H](CO)C[C@H]1O` [Cordycepin, 3′-deoxyadenosine, reference compound], the AUC(0-inf) in series [2] (female, NIH Swiss, in vivo, mouse serum, after iv azide derivative 100 mg/kg, read-out: AUC0→∞ iv) was 2170 ± 350 ng·h/mL; in series [2] (female, NIH Swiss, in vivo, mouse serum, after oral azide derivative 100 mg/kg, read-out: AUC0→∞ oral), 1630 ± 150 ng·h/mL. Further, the Cmax was 3890 ± 1720 ng/mL in series [2] (female, NIH Swiss, in vivo, mouse serum, after iv azide derivative 100 mg/kg, read-out: Cmax (maximal measured concentration) iv) and 1180 ± 600 ng/mL in series [2] (female, NIH Swiss, in vivo, mouse serum, after oral azide derivative 100 mg/kg, read-out: Cmax (maximal measured concentration) oral). The half-life in series [2] (female, NIH Swiss, in vivo, mouse serum, after iv azide derivative 100 mg/kg, read-out: T½ iv (converted)) was 14.4 min; in series [2] (female, NIH Swiss, in vivo, mouse serum, after oral azide derivative 100 mg/kg, read-out: T½ oral (converted)) it was 45.6 min. Besides, the “time of detection of cordycepin in serum above 0.05 μg/ml, iv” value in series [2] (female, NIH Swiss, mouse, in vivo, iv) is listed as at most 1.5 h. Moreover, in series [2] (female, NIH Swiss, mouse, in vivo, po), the “time of detection of cordycepin in serum above 0.05 μg/ml, oral” value is reported as at most 3 h. The detection in serum result in series [2] (setting [8]) is reported as “Neither 3′-deoxyinosine nor cordycepin were detected”. Moreover, the “re - relative exposure: AUC ratio oral vs. intravenous (AUCor/AUCiv)” value in series [2] (mouse serum, after azide derivative 100 mg/kg) is listed as 0.75. Moreover, the “cordycepin in serum samples collected 10 min later” value in series [2] (mouse, in vivo, iv, 100 mg/kg) was “not recovered”. Further, in series [2] (mouse, in vivo, iv, 100 mg/kg), the “cordycepin in serum samples collected at 5 min” value was “trace amount”.
Take `CNc1ncnc2c1ncn2[C@@H]1O[C@H](CO)C[C@@H]1F` [FMAddA, N^6-methyl-2′,3′-dideoxy-2′-fluoro-β-D-arabinofuranosyladenine]: in series [3] (PBS pH 7.4, 37° C.), the “stability in phosphate buffer saline” value is reported as “stable”. Moreover, the “half-life in brain homogenate” value in series [3] (mouse brain homogenate) is listed as “stable”. Also, the “t1/2 in liver homogenate (metabolized to 2′-F-ara-ddI)” value in series [3] (mouse liver homogenate) was 546 min. Also, the “degradation half-life in mouse serum” value in series [3] (mouse serum, 37° C.) is on record as “stable”. In addition, the “intravenously administered dose of prodrug converted to 2′-F-ara-ddI” value in “in vivo” is given as 5.6%. Besides, in “in vivo” (iv), the “Steady-state volume of distribution” value was found to be 0.79 L/kg and the Total clearance stood at 32.2 mL/min/kg. In series [4] (PBS + adenosine deaminase), the “t½ upon addition of adenosine deaminase to PBS” value was 27.6 min. The “extent of conversion to 2′-F-ara-ddI upon addition of adenosine deaminase” value in series [4] (PBS and brain homogenate + adenosine deaminase) was “virtually all of the prodrug was converted”. Further, in series [4] (brain homogenate + adenosine deaminase), the “t1/2 upon addition of adenosine deaminase to brain homogenate” value was found to be 222 min.
For the compound `O=c1[nH]cnc2c1ncn2[C@@H]1O[C@H](CO)C[C@H]1O` [Metabolite, 3′-deoxyinosine], in series [2] (setting [9]), the AUC(0-inf) turned out to be 3680 ± 260 ng·h/mL and the half-life is 30 min. For the same compound, in series [2] (setting [8]), the AUC(0-inf) is 5890 ± 590 ng·h/mL, the detection in serum result is on record as “Neither 3′-deoxyinosine nor cordycepin were detected” and the half-life was 39 min.
